Patent US11478460B2, “Diaryl substituted 6,5-fused ring compounds as C5aR inhibitors” (CHEMOCENTRYX, INC., priority 2017, dated 2022)

molecular target: C5aR (Homo sapiens (Human), UniProt P21730); assay: Chemotaxis assay using U937 cells (C5aR mediated migration); format: cell-based; conditions: read-out: Mig IC50
Experimental: U937 cells are a monocytic cell line which express C5aR, and are available from ATCC (VA). These cells were cultured as a suspension in RPMI-1640 medium supplemented with 2 mM L-glutamine, 1.5 g/L sodium bicarbonate, 4.5 g/L glucose, 10 mM HEPES, 1 mM sodium pyruvate, and 10% FBS. Cells were grown under 5% CO2/95% air, 100% humidity at 37° C. and subcultured twice weekly at 1:6 (cells were cultured at a density range of 1×10^5 to 2×10^6 cells/mL) and harvested at 1×10^6 cells/mL. Prior to assay, cells are treated overnight with 0.5 mM of cyclic AMP (Sigma, OH) and washed once prior to use. cAMP treated U937 cells can be used in C5aR ligand binding and functional assays.
Optionally, compounds may be further assayed for their ability to inhibit chemotaxis in cells. Chemotaxis assays are performed using 5 μm pore polycarbonate, polyvinylpyrrolidone-coated filters in 96-well chemotaxis chambers (Neuroprobe; Gaithersburg, Md.) using chemotaxis buffer (Hank's balanced salt solution (HBSS) and 1% FBS). C5aR ligands (i.e., C5a, R&D Systems; Minneapolis, Minn.) are use to evaluate compound mediated inhibition of C5aR mediated migration. Other chemokines (i.e., SDF-1α; R&D Systems; Minneapolis, Minn.) are used as specificity controls. The lower chamber is loaded with 29 μl of chemokine (i.e., 0.03 nM C5a) and varying amounts of compound; the top chamber contains 100,000 U937 or neutrophil cells in 20 μl. The chambers are incubated 1.5 hours at 37° C., and the number of cells in the lower chamber quantified either by direct cell counts in five high powered fields per well or by the CyQuant assay (Molecular Probes), a fluorescent dye method that measures nucleic acid content and microscopic observation.
The compounds in Table 1, below, were prepared using the methods described above. Characterization data is provided for each compound listed. Activity is provided as follows for the chemotaxis assay using U937 cells as described herein (Example 12): +, 500 nM<IC50; ++, 50 nM<IC50≤500 nM; +++, 5 nM<IC50≤50 nM; and ++++, IC50≤5 nM.

Sequence of C5aR (P21730 whole entry): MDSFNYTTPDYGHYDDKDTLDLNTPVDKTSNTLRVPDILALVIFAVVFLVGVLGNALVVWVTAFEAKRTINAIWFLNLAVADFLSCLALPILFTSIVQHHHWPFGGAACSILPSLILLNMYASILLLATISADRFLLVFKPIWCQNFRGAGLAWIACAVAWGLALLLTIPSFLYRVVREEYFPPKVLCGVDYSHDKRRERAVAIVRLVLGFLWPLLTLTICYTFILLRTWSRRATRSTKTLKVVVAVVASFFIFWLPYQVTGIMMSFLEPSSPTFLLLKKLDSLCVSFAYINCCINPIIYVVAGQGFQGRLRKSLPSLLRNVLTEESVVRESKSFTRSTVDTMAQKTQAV

Row | SMILES | IC50 [nM]
1 | Cc1cccc(C)c1-n1nc2c(c1-c1ccc(C(N)=O)cc1)CN(c1ncc(Cl)cc1Cl)CC2 [Example 1.109] | 50 to 500
2 | Cc1cccc(OCC(C)C)c1-n1nc2c(c1-c1ccc(NC(N)=O)cc1)CN(C(C)c1ccc(C(F)(F)F)cc1)CC2 (centres unmarked) [Example 1.303] | 5 to 50
3 | CCc1cccc(CC)c1-n1nc2c(c1-c1cc(F)c(NC(N)=O)cc1F)CN(C(C(N)=O)c1ccccc1)CC2 (centres unmarked) [Example 1.135] | > 500
4 | Cc1cc(C(C)(C)O)cnc1N1CCc2nn(-c3c(C)cccc3OCC(C)C)c(-c3ccc(NC(N)=O)cc3)c2C1 [Example 1.364] | > 500
5 | Cc1cccc(OCC(C)C)c1-n1nc2c(c1-c1ccc(NC(N)=O)cc1)CN(c1ccc(C(C)(C)C)cn1)CC2 [Example 1.370] | 5 to 50
6 | Cc1ccc(N2CCc3nn(-c4c(C)cccc4OCC(C)C)c(-c4ccc(NC(N)=O)cc4)c3C2)cc1C(F)(F)F [Example 1.440] | 5 to 50
7 | Cc1cccc(OCC(C)C)c1-n1nc2c(c1-c1ccc(NC(N)=O)cc1)CN(Cc1ccccc1Cl)CC2 [Example 1.313] | 5 to 50
8 | Cc1cccc(OCC(C)C)c1-n1nc2c(c1-c1ccc(NC(N)=O)cc1)CN(c1ncc(C(F)(F)F)cc1F)CC2 [Example 1.374] | 5 to 50
9 | CCc1cccc(CC)c1-n1nc2c(c1-c1ccc(NC(N)=O)c(F)c1)CN(C(C)CC)CC2 (centres unmarked) [Example 1.235] | 5 to 50
10 | CCOc1cccc(C)c1-n1nc2c(c1-c1ccc(N)cc1)CN(c1ccccc1C(C)C)CC2 [Example 1.479] | 50 to 500
11 | Cc1cccc(C)c1-n1nc2c(c1-c1cc(F)c(NC(N)=O)cc1F)CN(c1ncc(Cl)cc1C(N)=O)CC2 [Example 1.101] | > 500
12 | Cc1cc(C(F)(F)F)cnc1N1CCc2nn(-c3c(C)cccc3OCC(C)C)c(-c3ccc(NC(N)=O)cc3)c2C1 [Example 1.340] | 5 to 50
13 | COc1cc(F)c(-c2c3c(nn2-c2c(C)cccc2C)CCN(c2ncc(Cl)cc2Cl)C3)cc1F [Example 1.121] | > 500
14 | CCc1cccc(CC)c1-n1nc2c(c1-c1cc(F)c(N)cc1F)CN(Cc1ccc(C(F)(F)F)cc1C(F)(F)F)CC2 [Example 1.004] | 5 to 50
15 | Cc1cccc(OCC(C)C)c1-n1nc2c(c1-c1ccc(NC(N)=O)cc1)CN(CC(C)C(F)(F)F)CC2 (centres unmarked) [Example 1.391] | 5 to 50

Second part, the molecule after the results:

Row | IC50 [nM] | SMILES
16 | ≤ 5 | CCc1cccc(CC)c1-n1nc2c(c1-c1cc(F)c(NC(N)=O)cc1F)CN(C(CC)c1ccccc1)CC2 (centres unmarked) [Example 1.162]
17 | ≤ 5 | Cc1cc(Cl)cnc1N1CCc2nn(-c3c(C)cccc3OCC(C)C)c(-c3ccc(NC(N)=O)c(F)c3)c2C1 [Example 1.206]
18 | ≤ 5 | Cc1cc(N2CCc3nn(-c4c(C)cccc4OCC(C)C)c(-c4cc(F)c(NC(N)=O)cc4F)c3C2)ncc1Cl [Example 1.177]
19 | ≤ 5 | Cc1cccc(OCC(C)C)c1-n1nc2c(c1-c1ccc(NC(N)=O)cc1)CN(Cc1c(F)cccc1C(F)(F)F)CC2 [Example 1.351]
20 | ≤ 5 | Cc1cccc(OCC(C)C)c1-n1nc2c(c1-c1ccc(NC(N)=O)cc1)CN(C(C)c1ccccc1C(F)(F)F)CC2 (centres unmarked) [Example 1.330]
21 | ≤ 5 | Cc1cccc(OCC(C)C)c1-n1nc2c(c1-c1ccc(NC(N)=O)cc1)CN(Cc1ccc(Cl)cc1F)CC2 [Example 1.323]
22 | ≤ 5 | Cc1cccc(OCC(C)C)c1-n1nc2c(c1-c1ccc(NC(N)=O)cc1)CN(Cc1ccc(C(F)(F)F)cc1)CC2 [Example 1.345]
23 | ≤ 5 | Cc1cnc(N2CCc3nn(-c4c(C)cccc4OCC(C)C)c(-c4ccc(NC(N)=O)c(F)c4)c3C2)c(C(F)(F)F)c1 [Example 1.240]
24 | ≤ 5 | CCc1cccc(CC)c1-n1nc2c(c1-c1cc(F)c(NC(N)=O)cc1F)CN(C(C)(C)c1cccc(F)c1)CC2 [Example 1.195]
25 | ≤ 5 | Cc1cccc(OCC(C)C)c1-n1nc2c(c1-c1ccc(NC(N)=O)cc1)CN(c1ccc(Cl)cc1C(F)(F)F)CC2 [Example 1.317]
26 | ≤ 5 | Cc1cccc(OCC(C)C)c1-n1nc2c(c1-c1ccc(NC(N)=O)cc1)CN(Cc1ccc(F)cc1C(F)(F)F)CC2 [Example 1.358]
